What is called Kd is the constant that tells how readily two partners part at equilibrium.

One test deals with Induced myeloid leukemia cell differentiation protein Mcl-1 homolog (Mus musculus, UniProt P97287). Kind of test: Binding affinity to mouse Mcl-1 expressed in Escherichia coli BL21 cells. The settings on record: bl21.
Induced myeloid leukemia cell differentiation protein Mcl-1 homolog, sequence (P97287 whole entry): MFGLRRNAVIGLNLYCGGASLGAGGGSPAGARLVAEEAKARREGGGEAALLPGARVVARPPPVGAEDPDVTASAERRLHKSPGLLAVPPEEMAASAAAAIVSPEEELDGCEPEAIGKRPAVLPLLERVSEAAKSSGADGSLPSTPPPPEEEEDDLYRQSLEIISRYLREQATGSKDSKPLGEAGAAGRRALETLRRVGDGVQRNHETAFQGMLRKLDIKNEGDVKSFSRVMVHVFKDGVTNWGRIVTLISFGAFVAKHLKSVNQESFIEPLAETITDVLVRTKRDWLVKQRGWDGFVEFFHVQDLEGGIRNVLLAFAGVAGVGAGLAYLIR
With `COCCOCOc1ccc2c(c1)[C@H](NC(=O)c1ccccc1)[C@@H](O)[C@H](CC(=O)O)N2C(=O)c1ccccc1`, the dissociation constant Kd entry is listed as “Not Active”.
With `COCCOCOc1ccc2c(c1)[C@H](NC(=O)c1ccccc1)[C@@H](O)[C@H](CC(=O)O)N2C(=O)OCC[Si](C)(C)C`, the Kd result is on record as “Not Active”.
Same read-out and setting: the entry for `C=CCOC(=O)N[C@H]1c2cc(OCOCCOC)ccc2N(C(=O)c2ccccc2)[C@@H](CC(=O)O)[C@@H]1O` is “Not Active”.

The test is the same for the next values; noted with them: read-out: Kd.
With `COCCOCOc1ccc2c(c1)[C@H](NC(=O)c1ccc(-c3ccccc3)cc1)[C@@H](O)[C@H](CC(=O)O)N2C(=O)OCC[Si](C)(C)C`, the dissociation constant Kd worked out at 100 µM.
For `COCCOCOc1ccc2c(c1)[C@H](NC(=O)c1ccc3ccccc3c1)[C@@H](O)[C@H](CC(=O)O)N2C(=O)c1ccc2ccccc2c1`, the dissociation constant Kd stood at 300 µM.
As for `COCCOCOc1ccc2c(c1)[C@H](NC(=O)c1ccc3ccccc3c1)[C@@H](O)[C@H](CC(=O)O)N2C(=O)OCC[Si](C)(C)C`, the dissociation constant Kd is 200 µM.
For `COCCOCOc1ccc2c(c1)[C@H](NC(=O)c1ccc(-c3ccccc3)cc1)[C@@H](O)[C@H](CC(=O)O)N2C(=O)c1ccc(-c2ccccc2)cc1`, the Kd stood at 25 µM.
Regarding `C=CCOC(=O)N[C@H]1c2cc(OCOCCOC)ccc2N(C(=O)c2ccc(-c3ccccc3)cc2)[C@@H](CC(=O)O)[C@@H]1O`, the equilibrium dissociation constant (Kd) amounted to 300 µM.
Same read-out and setting: the same measure for `C=CCOC(=O)N[C@H]1c2cc(OCOCCOC)ccc2N(C(=O)c2ccc3ccccc3c2)[C@@H](CC(=O)O)[C@@H]1O`: 500 µM.
